Here are results for 8 molecules from patent US20170150719A1, “FUNGICIDAL PYRAZOLES AND THEIR MIXTURES” (E I DU PONT DE NEMOURS AND COMPANY, priority 2010, published 2017).

SMILES strings stand for the structures. Marks after values point to notes of the source that are not given here.

One test deals with Alternaria solani. Kind of test: Test B: tomato early blight, preventive spray on tomato seedlings, visual disease rating. Conditions: tomato early blight; for Test B rating (disease control): 100 = 100% disease control, 0 = no disease control relative to the controls; for Test B rating (disease control), value marked *: rating marked with asterisk (*), other test condition, not explained in the text shown.

Test [1] deals with Blumeria graminis f. sp. tritici. Kind of test: Test I: wheat powdery mildew, preventive spray on wheat seedlings, visual disease rating. Conditions: wheat powdery mildew; for Test I rating (disease control): 100 = 100% disease control, 0 = no disease control relative to the controls; for Test I rating (disease control), value marked *: rating marked with asterisk (*), not explained in the text shown.

The test system of the next test is Septoria nodorum. Kind of test: Test E: Septoria glume blotch, preventive spray on wheat seedlings, visual disease rating. To be noted: Septoria glume blotch; for Test E rating (disease control): 100 = 100% disease control, 0 = no disease control relative to the controls; for Test E rating (disease control), value marked *: rating marked with asterisk (*), other test condition, not explained in the text shown.

Test [2] concerns Puccinia recondita f. sp. tritici. Put plainly: Test G: wheat leaf rust, spray after inoculation (curative) on wheat seedlings, visual disease rating. The format is in vivo. Conditions: sprayed after inoculation; for Test G rating (disease control): 100 = 100% disease control, 0 = no disease control; for Test G rating (disease control), value marked *: rating marked with asterisk (*), not explained in the text shown. An excerpt:
(§1) A hyphen (-) indicates no test results.

The next test deals with Septoria tritici. Kind of test: Test F: wheat leaf blotch, preventive spray on wheat seedlings, visual disease rating. It counts as in vivo. Details: Test F rating (disease control), value marked *: concentration or dose not given beside the values. Conditions: for Test F rating (disease control): 100 = 100% disease control, 0 = no disease control relative to the controls; for Test F rating (disease control), value marked *: rating marked with asterisk (*), other test condition, not explained in the text shown.
Description: as §1

Another test deals with Botrytis cinerea. Kind of test: Test A: tomato Botrytis, preventive spray on tomato seedlings, visual disease rating. Conditions: tomato Botrytis; for Test A rating (disease control): 100 = 100% disease control, 0 = no disease control relative to the controls; for Test A rating (disease control), value marked *: rating marked with asterisk (*), other test condition, not explained in the text shown.

The test system of test [3] is Puccinia recondita f. sp. tritici. Kind of test: Test H: wheat leaf rust, preventive spray on wheat seedlings, visual disease rating. To be noted: wheat leaf rust; for Test H rating (disease control): sprayed the day before inoculation, 100 = 100% disease control, 0 = no disease control; for Test H rating (disease control), value marked *: preventive, rating marked with asterisk (*), not explained in the text shown.

Consider `Cc1nn(C)c(Nc2c(F)cc(F)cc2Cl)c1-c1ccc(Cl)cc1Cl` [compound 156], for which, in the test with Alternaria solani, the “Test B rating (disease control)” value came out at 99%. Further, in test [1], the “Test I rating (disease control)” value is 99%. In the test on Septoria nodorum, the “Test E rating (disease control)” value is 73%. In addition, the “Test G rating (disease control)” value in test [2] was determined as 31%. The “Test F rating (disease control)” value in the test with Septoria tritici was determined as 100%. In addition, the “Test A rating (disease control)” value in the test on Botrytis cinerea stood at 100%. Also, the “Test H rating (disease control)” value in test [3] is 99%.
Turning to `Cc1nn(C)c(Oc2ccc(Cl)cc2F)c1-c1ccc(F)cc1Cl` [compound 158], in the test with Alternaria solani, the “Test B rating (disease control), value marked *” value (shortened to “Test B rating … value marked *”) is 80* %. For the same molecule, in test [1], the “Test I rating (disease control), value marked *” value (from here on “Test I rating … value marked *”) is on record as 96* %. For the same molecule, the “Test E rating (disease control), value marked *” value (“Test E rating … value marked *” for short) with Septoria nodorum was 0* %. The “Test G rating (disease control), value marked *” value (“Test G rating … value marked *” for short) in test [2] is 37* %. For the same molecule, in the test with Septoria tritici, the “Test F rating (disease control), value marked *” value (“Test F rating … value marked *” for short) is reported as 99* %. Besides, the “Test A rating (disease control), value marked *” value (“Test A rating … value marked *” for short) in the test on Botrytis cinerea is given as 100* %. In test [3], the “Test H rating (disease control), value marked *” value (“Test H rating … value marked *” for short) was 98* %.
Take `Cc1nn(C)c(Oc2ccc(C#N)cc2F)c1-c1ccc(F)cc1F` [compound 159]: the “Test B rating … value marked *” value with Alternaria solani is 97* %. In addition, the “Test I rating … value marked *” value in test [1] was 96* %. For the same molecule, the “Test E rating … value marked *” value with Septoria nodorum is given as 86* %. For the same molecule, in test [2], the “Test G rating … value marked *” value is reported as 0* %. For the same molecule, the “Test F rating … value marked *” value in the test on Septoria tritici is 100* %. In addition, in the test on Botrytis cinerea, the “Test A rating … value marked *” value is reported as 100* %. In addition, the “Test H rating … value marked *” value in test [3] is given as 98* %.
Consider `Cc1nn(C)c(Nc2ccc(Cl)cc2F)c1-c1ccc(F)cc1F` [compound 160], for which the “Test B rating (disease control)” value in the test on Alternaria solani is 99%. Moreover, the “Test I rating (disease control)” value in test [1] came to 100%. In addition, the “Test E rating (disease control)” value in the test on Septoria nodorum turned out to be 0%. Moreover, the “Test G rating (disease control)” value in test [2] came to 0%. The “Test F rating (disease control)” value with Septoria tritici stood at 100%. In the test with Botrytis cinerea, the “Test A rating (disease control)” value amounted to 100%. Besides, the “Test H rating (disease control)” value in test [3] was found to be 99%.
Turning to `Cc1nn(C)c(Nc2c(F)cc(Br)cc2F)c1-c1ccc(F)cc1Br` [compound 163], in the test on Alternaria solani, the “Test B rating … value marked *” value was 77* %. In test [1], the “Test I rating … value marked *” value is recorded as 100* %. The “Test E rating … value marked *” value with Septoria nodorum is recorded as 60* %. The “Test G rating … value marked *” value in test [2] was 91* %. Also, the “Test F rating … value marked *” value in the test on Septoria tritici was 100* %. The “Test A rating … value marked *” value with Botrytis cinerea is recorded as 100* %. The “Test H rating … value marked *” value in test [3] is 100* %.
For the molecule `Cc1nn(C)c(Nc2c(Cl)cc(Br)cc2Cl)c1-c1ccc(F)cc1Cl` [compound 164], the “Test B rating (disease control)” value in the test with Alternaria solani came to 0%. Also, the “Test I rating (disease control)” value in test [1] is listed as 99%. Besides, the “Test E rating (disease control)” value in the test on Septoria nodorum is listed as 0%. Also, the “Test G rating (disease control)” value in test [2] stood at 99%. Moreover, the “Test F rating (disease control)” value in the test with Septoria tritici is reported as 100%. The “Test A rating (disease control)” value in the test on Botrytis cinerea stood at 99%. The “Test H rating (disease control)” value in test [3] was 100%.
For the molecule `Cc1nn(C)c(Nc2ccc(Br)cc2Cl)c1-c1ccc(F)cc1F` [compound 167], the “Test B rating (disease control)” value in the test on Alternaria solani came to 0%. The “Test I rating (disease control)” value in test [1] was 98%. Also, the “Test E rating (disease control)” value in the test with Septoria nodorum worked out at 0%. Further, in test [2], the “Test G rating (disease control)” value was 6%. The “Test F rating (disease control)” value in the test with Septoria tritici was 100%. In addition, in the test on Botrytis cinerea, the “Test A rating (disease control)” value is given as 100%. Also, the “Test H rating (disease control)” value in test [3] stood at 92%.
For `Cc1nn(C)c(Nc2c(Cl)cc(Br)cc2Cl)c1-c1ccc(F)cc1Br` [compound 168], the “Test B rating (disease control)” value in the test with Alternaria solani was 0%. The “Test I rating (disease control)” value in test [1] was found to be 48%. Besides, the “Test E rating (disease control)” value in the test with Septoria nodorum was determined as 0%. The “Test G rating (disease control)” value in test [2] came out at 97%. Also, the “Test F rating (disease control)” value with Septoria tritici is listed as 100%. Further, the “Test A rating (disease control)” value in the test on Botrytis cinerea amounted to 0%. Further, in test [3], the “Test H rating (disease control)” value is listed as 91%.
